Source: patent publication US10723705B2, “Heterocyclic compounds and uses thereof” (Incyte Corporation, priority 2015, dated 2020)
Where two headings read alike, the source gives them in different places.

Target: Human recombinant Histone Deacetylase 8 (HDAC8) (Homo sapiens (Human), UniProt Q9BY41)
Assay: HDAC8 Enzymatic Assay (HDAC-Glo I/II luminescence)
Format: biochemical
Description: HDAC-Glo™ I/II Assay Kit was purchased from Promega Corporation (Madison, Wis.), including the following components: HDAC-Glo I/II Buffer (25 mM Tris buffer, pH 8.0, supplemented with 137 mM: NaCl, 2.7 mM KCl, 1% v/v Triton X-100 and 1 mM: MgCl2), luminogenic substrates Boc-GAK(Ac)-aminoluciferin (HDAC-Glo I/II substrate), proprietary developer reagent (containing trypsin). Human recombinant Histone Deacetylase 8 (HDAC8) was purchased from Enzo Life Sciences (Plymouth Meeting, Pa.).
The HDAC8 reaction was performed at room temperature in white 384-well polystyrene, flat-bottom microtiter plate (Greiner Bio-one, Monroe, N.C.) in a final volume of 20 μL. Test compounds were first diluted serially in DMSO and 100 nL were transferred to the plate wells by Echo 550 (Labcyte, Sunnyvale, Calif.) before the addition of other reaction components. The final concentration of DMSO in the assay was 0.5%. The HDAC-Glo I/II assay reagent was prepared by rehydration of lyophilized HDAC-Glo I/II substrate in 10 mL. HDAC-Glo I/II assay buffer followed with the addition of 10 μL of developer reagent. 10 uL of 3 nM HDAC8 in the HDAC-Glo I/II assay buffer were first dispensed into the microliter plate containing the compounds and incubated at room temperature for 30 min. The reactions were initiated with the addition of 10 uL HDAC-Glo I/II assay reagent with Multidrop (Thermo, Waltham, Mass.). The final concentration of HDAC8 and HDAC-Glo I/II substrate in the reaction were 1.5 nM and 50 μM, respectively. The assay plate was mixed for 1 min by orbital shaking (500 rpm) and centrifuged for 1 min at 1500 rpm. After 15 min at room temperature, luminescence signals were measured on TopCount (Perkin Elmer). Wells with no compound served as the positive controls and wells containing no HDAC8 were used as negative controls. IC50 determination was performed by fitting the curve of percentage control activity versus the log of the compound concentration using the GraphPad Prism 6.0 software.

[1] = class symbols, Table 14, read-out: HDAC8 IC50

Sequence of Human recombinant Histone Deacetylase 8 (HDAC8) (Q9BY41 whole entry): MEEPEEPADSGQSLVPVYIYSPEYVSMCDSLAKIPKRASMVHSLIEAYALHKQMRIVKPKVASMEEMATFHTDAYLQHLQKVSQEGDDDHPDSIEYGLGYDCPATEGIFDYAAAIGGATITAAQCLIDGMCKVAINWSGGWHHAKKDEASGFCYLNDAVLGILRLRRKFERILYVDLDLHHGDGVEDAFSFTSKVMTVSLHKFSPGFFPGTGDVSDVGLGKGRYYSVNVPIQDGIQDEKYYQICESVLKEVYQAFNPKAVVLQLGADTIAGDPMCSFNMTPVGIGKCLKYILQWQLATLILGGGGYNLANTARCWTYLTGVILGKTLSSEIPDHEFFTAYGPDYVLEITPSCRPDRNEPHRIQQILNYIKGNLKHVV

**Q.** Which IC50 [1] does the source give for `Cc1cccc2cn(C(Cc3ccccc3)C(=O)NO)nc12` (stereo not shown) [Compound I-0078, N-hydroxy-2-(7-methyl-2H-indazol-2-yl)-3-phenylpropanamide] here?
**A.** Its IC50 is over 500 nM.

**Q.** Which IC50 [1] does the source give for `O=C(NO)C(Cc1ccccc1)n1ncc2c(-c3ccccc3)cccc21` (stereo not shown) [Compound I-0079, N-hydroxy-3-phenyl-2-(4-phenyl-1H-indazol-1-yl)propanamide] here?
**A.** Its IC50 is over 500 nM.

**Q.** For `NC(=O)c1ccc(-c2cccc3c2cnn3C(Cc2ccccc2)C(=O)NO)cc1` (stereo not shown) [Compound I-0080, 4-(1-(1-(hydroxyamino)-1-oxo-3-phenylpropan-2-yl)-1H-indazol-4-yl)benzamide], which IC50 [1] is on record?
**A.** The IC50 was over 500 nM.

**Q.** For `O=C(NO)C(Cc1ccccc1)n1ncc2c(-c3cncnc3)cccc21` (stereo not shown) [Compound I-0081, N-hydroxy-3-phenyl-2-(4-(pyrimidin-5-yl)-1H-indazol-1-yl)propanamide], which IC50 [1] is on record?
**A.** Its IC50 is 50 to 200 nM.

**Q.** With `O=C(NO)C(Cc1ccccc1)n1cc2cccc(C#CC3CC3)c2n1` (stereo not shown) [Compound I-0082, 2-(7-(Cyclopropylethynyl)-2H-indazol-2-yl)-N-hydroxy-3-phenylpropanamide] as the molecule, how does the IC50 [1] read?
**A.** Its IC50 is 200 to 500 nM.

**Q.** `Cn1nccc1-c1cccc2c1cnn2C(Cc1ccccc1)C(=O)NO` (stereo not shown) [Compound I-0083, N-hydroxy-2-(4-(1-methyl-1H-pyrazol-5-yl)-1H-indazol-1-yl)-3-phenylpropanamide] was tested. Which IC50 [1] did it give?
**A.** The IC50 was 50 to 200 nM.

**Q.** `Cc1cccc2c1cnn2C(Cc1ccccc1)C(=O)NO` (stereo not shown) [Compound I-0084, N-hydroxy-2-(4-methyl-1H-indazol-1-yl)-3-phenylpropanamide] was tested. Which IC50 [1] did it give?
**A.** The IC50 was over 500 nM.

**Q.** Which IC50 [1] does the source give for `CN1CC=C(c2cccc3c2cnn3C(Cc2ccccc2)C(=O)NO)CC1` (stereo not shown) [Compound I-0085, N-hydroxy-2-(4-(1-methyl-1,2,3,6-tetrahydropyridin-4-yl)-1H-indazol-1-yl)-3-phenylpropanamide] here?
**A.** The IC50 was 200 to 500 nM.

**Q.** Which IC50 [1] does the source give for `O=C(NO)C(Cc1ccccc1)n1ncc2cc(-c3ccccc3)ncc21` (stereo not shown) [Compound I-0086, N-hydroxy-3-phenyl-2-(5-phenyl-1H-pyrazolo[3,4-c]pyridin-1-yl)propanamide] here?
**A.** Its IC50 is over 500 nM.

**Q.** Which IC50 [1] does the source give for `O=C(NO)C(Cc1ccccc1)n1ncc2cc(-c3c(F)cccc3F)ncc21` (stereo not shown) [Compound I-0087, 2-(5-(2,6-difluorophenyl)-1H-pyrazolo[3,4-c]pyridin-1-yl)-N-hydroxy-3-phenylpropanamide] here?
**A.** Its IC50 is over 500 nM.

**Q.** With `N#Cc1ccc(-c2cc3cnn(C(Cc4ccccc4)C(=O)NO)c3cn2)cc1` (stereo not shown) [Compound I-0088, 2-(5-(4-cyanophenyl)-1H-pyrazolo[3,4-c]pyridin-1-yl)-N-hydroxy-3-phenylpropanamide] as the molecule, how does the IC50 [1] read?
**A.** The IC50 was over 500 nM.

**Q.** Which IC50 [1] does the source give for `NC(=O)c1ccc(-c2cc3cnn(C(Cc4ccccc4)C(=O)NO)c3cn2)cc1` (stereo not shown) [Compound I-0089, 4-(1-(1-(hydroxyamino)-1-oxo-3-phenylpropan-2-yl)-1H-pyrazolo[3,4-c]pyridin-5-yl)benzamide] here?
**A.** Its IC50 is 200 to 500 nM.

**Q.** Which IC50 [1] does the source give for `Cn1nccc1-c1cc2cnn(C(Cc3ccccc3)C(=O)NO)c2cn1` (stereo not shown) [Compound I-0090, N-hydroxy-2-(5-(1-methyl-1H-pyrazol-5-yl)-1H-pyrazolo[3,4-c]pyridin-1-yl)-3-phenylpropanamide] here?
**A.** Its IC50 is 200 to 500 nM.

**Q.** How did the IC50 [1] turn out when `Cn1cc(-c2cc3cnn(C(Cc4ccccc4)C(=O)NO)c3cn2)cn1` (stereo not shown) [Compound I-0091, N-hydroxy-2-(5-(1-methyl-1H-pyrazol-4-yl)-1H-pyrazolo[3,4-c]pyridin-1-yl)-3-phenylpropanamide] was run?
**A.** The IC50 was over 500 nM.

**Q.** Which IC50 [1] does the source give for `O=C(NO)C(Cc1ccccc1)n1ncc2cc(-c3cncnc3)ncc21` (stereo not shown) [Compound I-0092, N-hydroxy-3-phenyl-2-(5-(pyrimidin-5-yl)-1H-pyrazolo[3,4-c]pyridin-1-yl)propanamide] here?
**A.** Its IC50 is 200 to 500 nM.

**Q.** Which results are given for `O=C(NO)C(Cc1ccccc1)c1cnc2cc(Cl)ccn12` (stereo not shown) [Compound I-0093, 2-(7-Chloroimidazo[1,2-a]pyridin-3-yl)-N-hydroxy-3-phenylpropanamide]?
**A.** IC50 (HDAC8, read-out: IC50): 22 nM; IC50 [1]: ≤ 50 nM

**Q.** Which IC50 [1] does the source give for `COc1ncc(-c2cc3cnn(C(Cc4ccccc4)C(=O)NO)c3cn2)cn1` (stereo not shown) [Compound I-0094, N-hydroxy-2-(5-(2-methoxypyrimidin-5-yl)-1H-pyrazolo[3,4-c]pyridin-1-yl)-3-phenylpropanamide] here?
**A.** Its IC50 is 200 to 500 nM.

**Q.** For `O=C(NO)C(Cc1ccccc1)n1ncc2cc(-c3cccnc3)ncc21` (stereo not shown) [Compound I-0095, N-hydroxy-3-phenyl-2-(5-(pyridin-3-yl)-1H-pyrazolo[3,4-c]pyridin-1-yl)propanamide], which IC50 [1] is on record?
**A.** The IC50 was 200 to 500 nM.

**Q.** `COc1ccc(-c2cc3cnn(C(Cc4ccccc4)C(=O)NO)c3cn2)cn1` (stereo not shown) [Compound I-0096, N-hydroxy-2-(5-(6-methoxypyridin-3-yl)-1H-pyrazolo[3,4-c]pyridin-1-yl)-3-phenylpropanamide] was tested. Which IC50 [1] did it give?
**A.** Its IC50 is over 500 nM.

**Q.** For `O=C(NO)C(Cc1ccccc1)n1ncc2cc(-c3ccncc3)ncc21` (stereo not shown) [Compound I-0097, N-hydroxy-3-phenyl-2-(5-(pyridin-4-yl)-1H-pyrazolo[3,4-c]pyridin-1-yl)propanamide], which IC50 [1] is on record?
**A.** Its IC50 is over 500 nM.

**Q.** Which IC50 [1] does the source give for `O=C(NO)C(Cc1ccccc1)n1ncc2cc(C3CC3)ncc21` (stereo not shown) [Compound I-0098, 2-(5-cyclopropyl-1H-pyrazolo[3,4-c]pyridin-1-yl)-N-hydroxy-3-phenylpropanamide] here?
**A.** Its IC50 is over 500 nM.

**Q.** How did the IC50 [1] turn out when `O=C(NO)C(Cc1ccccc1)n1ncc2cc(Br)ncc21` (stereo not shown) [Compound I-0099, 2-(5-bromo-1H-pyrazolo[3,4-c]pyridin-1-yl)-N-hydroxy-3-phenylpropanamide] was run?
**A.** Its IC50 is over 500 nM.

**Q.** `O=C(NO)C(Cc1ccccc1)n1cc2cc(Br)ncc2n1` (stereo not shown) [Compound I-0100, 2-(5-bromo-2H-pyrazolo[3,4-c]pyridine-2-yl)-N-hydroxy-3-phenylpropanamide] was tested. Which IC50 [1] did it give?
**A.** The IC50 was over 500 nM.

**Q.** Which IC50 [1] does the source give for `CN1CC=C(c2cccc3cn(C(Cc4ccccc4)C(=O)NO)nc23)CC1` (stereo not shown) [Compound I-0101, N-hydroxy-2-(7-(1-methyl-1,2,3,6-tetrahydropyridin-4-yl)-2H-indazol-2-yl)-3-phenylpropanamide] here?
**A.** Its IC50 is over 500 nM.

**Q.** With `O=C(NO)C(Cc1ccccc1)n1ncc2ccccc21` (stereo not shown) [Compound I-0102, N-hydroxy-2-(1H-indazol-1-yl)-3-phenylpropanamide] as the molecule, how does the IC50 [1] read?
**A.** Its IC50 is over 500 nM.

**Q.** `Cc1nn(C)c(C)c1-c1ccc2c(cnn2C(Cc2ccccc2)C(=O)NO)c1` (stereo not shown) [Compound I-0103, N-hydroxy-3-phenyl-2-(5-(1,3,5-trimethyl-1H-pyrazol-4-yl)-1H-indazol-1-yl)propanamide] was tested. Which IC50 [1] did it give?
**A.** The IC50 was 200 to 500 nM.

**Q.** How did the IC50 [1] turn out when `O=C(NO)C(Cc1ccccc1)n1ncc2cc(-c3cccnc3)ccc21` (stereo not shown) [Compound I-0104, N-hydroxy-3-phenyl-2-(5-(pyridin-3-yl)-1H-indazol-1-yl)propanamide] was run?
**A.** The IC50 was 50 to 200 nM.

**Q.** `Cn1cc(-c2ccc3c(cnn3C(Cc3ccccc3)C(=O)NO)c2)cn1` (stereo not shown) [Compound I-0105, N-hydroxy-2-(5-(1-methyl-1H-pyrazol-4-yl)-1H-indazol-1-yl)-3-phenylpropanamide] was tested. Which IC50 [1] did it give?
**A.** The IC50 was 50 to 200 nM.

**Q.** For `CN(C)C(=O)c1ccc(-c2ccc3c(cnn3C(Cc3ccccc3)C(=O)NO)c2)cc1` (stereo not shown) [Compound I-0106, 4-(1-(1-(hydroxyamino)-1-oxo-3-phenylpropan-2-yl)-1H-indazol-5-yl)-N,N-dimethylbenzamide], which IC50 [1] is on record?
**A.** Its IC50 is 200 to 500 nM.

**Q.** How did the IC50 [1] turn out when `N/C(=N\O)c1cccc(-c2ccc3c(cnn3C(Cc3ccccc3)C(=O)NO)c2)c1` (stereo not shown) [Compound I-0107, (Z)-N-hydroxy-2-(5-(3-(N′-hydroxy-carbamimid-oyl)phenyl)-1H-indazol-1-yl)-3-phenylpropanamide] was run?
**A.** The IC50 was 50 to 200 nM.

**Q.** `Cn1cc(-c2cccc3cn(C(Cc4ccccc4)C(=O)NO)nc23)cn1` (stereo not shown) [Compound I-0109, N-hydroxy-2-(7-(1-methyl-1H-pyrazol-4-yl)-2H-indazol-2-yl)-3-phenylpropanamide] was tested. Which IC50 [1] did it give?
**A.** Its IC50 is 200 to 500 nM.

**Q.** With `CN(C)C(=O)c1ccc(-c2cccc3cn(C(Cc4ccccc4)C(=O)NO)nc23)cc1` (stereo not shown) [Compound I-0110, 4-(2-(1-(hydroxyamino)-1-oxo-3-phenylpropan-2-yl)-2H-indazol-7-yl)-N,N-dimethylbenzamide] as the molecule, how does the IC50 [1] read?
**A.** The IC50 was at most 50 nM.

**Q.** How did the IC50 [1] turn out when `Cc1nn(C)c(C)c1-c1cccc2cn(C(Cc3ccccc3)C(=O)NO)nc12` (stereo not shown) [Compound I-0111, N-hydroxy-3-phenyl-2-(7-(1,3,5-trimethyl-1H-pyrazol-4-yl)-2H-indazol-2-yl)propanamide] was run?
**A.** The IC50 was over 500 nM.

**Q.** With `O=C(NO)C(Cc1ccccc1)c1cnc2cc(-c3cncnc3)ccn12` (stereo not shown) [Compound I-0112, N-hydroxy-3-phenyl-2-(7-(pyrimidin-5-yl)imidazo[1,2-a]pyridin-3-yl)propanamide] as the molecule, how does the IC50 [1] read?
**A.** Its IC50 is 50 to 200 nM.

**Q.** `O=C(NO)C(Cc1ccccc1)c1cnc2cc(-c3ccncc3)ccn12` (stereo not shown) [Compound I-0113, N-hydroxy-3-phenyl-2-(7-(pyridin-4-yl)imidazo[1,2-a]pyridin-3-yl)propanamide] was tested. Which IC50 [1] did it give?
**A.** The IC50 was over 500 nM.

**Q.** With `O=C(NO)C(Cc1ccccc1)c1cnc2cc(-c3cccnc3)ccn12` (stereo not shown) [Compound I-0114, N-hydroxy-3-phenyl-2-(7-(pyridin-3-yl)imidazo[1,2-a]pyridin-3-yl)propanamide] as the molecule, how does the IC50 [1] read?
**A.** The IC50 was 200 to 500 nM.
